The subject of one assay is KC6141 tumors. The assay is described as follows: s.c. tumors in C57BL/6 mice. The class given is in vivo, mouse. To be noted: EIPA 7.5 mg/kg, MRT68921 10 mg/kg, 21 days (3 weeks). As to the method: To evaluate the effects of MP on tumor growth in the autochthonous model, Kras^G12D;Ikkα^Δpan mice, at 4 weeks of age, were treated with vehicle or 10 mg/kg EIPA (Sigma) by intraperitoneal injection every other day for 1 month. After that, surgically removed pancreata were weighed and used for further analysis. To evaluate the effects of MP on heterotopic xenografts, female homozygous BALB/c Nu/Nu nude mice were injected subcutaneously (s.c.) in both flanks at 7 weeks of age with 10^6 parental and IKKα KO MIA PaCa-2 cells mixed at a 1:1 dilution with BD Matrigel (BD Biosciences) in a total volume of 100 μl. Mice were treated with EIPA (7.5 mg/kg) for 15 days when tumors attained an average volume of 50-100 mm^3. As a control, animals treated with vehicle (DMSO in PBS) were used. Volumes (1/2×(width^2×length)) of s.c. tumors were calculated on the basis of measurements using digital calipers after 15 days of treatment. […] Tumor volumes were calculated as above.
In some embodiments, to evaluate the effects of MP on tumor growth or survival in the autochthonous model, Kras^G12D;Ikkα^ΔPEC mice, at 4 weeks of age, were treated with vehicle or 10 mg/kg EIPA (Sigma) by i.p. injection every other day for 1 month. […] Volumes (1/2×(width^2×length)) of s.c. tumors were calculated on the basis of measurements using digital calipers after 15 days of treatment. […] Tumor volumes were calculated as above.

A further assay has as its system KC6141 cells. Put plainly: L-Amino acid assay. The class given is cell-based, mouse. To be noted: 0.5 mM glucose, 24 hrs; for amino acid content: KC6141 cells on ECM. As to the method: Extracellular Matrix (ECM) Preparation. Skin fibroblasts were seeded on 6/12/96-well plates. One day after plating, cells were switched into DMEM (with pyruvate) with 10% dialysed FBS supplemented with or without 500 μM ^3H-proline and 100 μM Vitamin C. Cells were cultured for 6 days with media renewal every 24 h. After six days, skin fibroblasts were removed by washing in 1 ml or 500 μl or 100 μl per well PBS with 0.5% (v/v) Triton X-100 and 20 mM NH4OH. ECM was washed five times with PBS before plating KC6141 cells. The following day, KC6141 cells were switched into the indicated medium for 24 or 72 hrs.
L-Amino Acid Assay. Total amount of free L-amino acids (except for glycine) were measured by L-Amino Acid Assay Kit (Colorimetric) (antibodies) according to manufacturer's protocol. Briefly, KC6141 cells were grown on 6-well plates coated with or without ECM and treated as above. The cells were resuspended at 10^6 cells/mL 1× Assay Buffer and were homogenized on ice and then centrifuged to remove debris. 50 μL of each L-Alanine standard or cell lysis was added into wells of a 96-well microtiter plate. Then 50 μL of Reaction Mix was added to each well. The well contents were mixed thoroughly and incubated for 90 minutes at 37° C. protected from light. The plate was read with a spectrophotometric microplate reader in the 540-570 nm range. The concentration of L-Amino Acids was calculated within samples by comparing the sample OD to the standard curve.

A further assay concerns human PDAC 1334 tumors. The assay is described as follows: s.c. tumors in nude mice. To be noted: EIPA 7.5 mg/kg, MRT68921 10 mg/kg, 15 days. The class given is in vivo, mouse. As to the method: (§1) In some embodiments, to evaluate the effects of MP on tumor growth or survival in the autochthonous model, Kras^G12D;Ikkα^ΔPEC mice, at 4 weeks of age, were treated with vehicle or 10 mg/kg EIPA (Sigma) by i.p. injection every other day for 1 month. After that, surgically removed pancreata were weighed and used for further analysis and other mice were continued to maintain for survival. To evaluate the effects of MP on heterotopic xenografts, female homozygous BALB/c Nu/Nu nude mice were injected subcutaneously (s.c.) in both flanks at 7 weeks of age with 10^6 parental and IKKα^Δ MIA PaCa-2 cells or 1334 and 1444 cells mixed at a 1:1 dilution with BD Matrigel (BD Biosciences) in a total volume of 100 μl. Mice were treated with vehicle (DMSO in PBS), EIPA (7.5 mg/kg), MRT68921 (10 mg/kg) or MRT68921 and EIPA for 15 days when tumors attained an average volume of 50-100 mm^3. Volumes (1/2×(width^2×length)) of s.c. tumors were calculated on the basis of measurements using digital calipers after 15 days of treatment. To evaluate the combination effects of autophagy and MP inhibition on tumor growth, C57BL/6 mice were injected s.c. at 7 weeks of age with 10^6 parental, Ikkα KD, Nhe1 KD or Ikkα+Nhe1 DKD KC6141 cells in a total volume of 100 μl. Mice were treated with or without vehicle, EIPA (7.5 mg/kg), MRT68921 (10 mg/kg), or EIPA and MRT68921 for 21 days when tumors attained an average volume of 50-100 mm^3. Tumor volumes were calculated as above.

In the next assay the test system is human PDAC 1444 tumors. Put plainly: s.c. tumors in nude mice. The class given is in vivo, mouse. To be noted: EIPA 7.5 mg/kg, MRT68921 10 mg/kg, 15 days. The procedure: as §1

Turning to `CN1CCc2cc(Nc3ncc(C4CC4)c(NCCCNC(=O)C4CCC4)n3)ccc2C1` [MRT68921], the tumor growth entry with KC6141 tumors is “small effect”; in the assay on human PDAC 1334 tumors, “insensitive to MRT68921”; with human PDAC 1444 tumors, “small effect”. Also, the amino acid content result with KC6141 cells is “further elevated”.

Consider `CCN(c1nc(N)c(C(=O)N=C(N)N)nc1Cl)C(C)C` [EIPA, 5-(N-ethyl-N-isopropyl) amiloride], for which the figures for the tumor growth entry in the assay on KC6141 tumors, in the assay on human PDAC 1334 tumors and with human PDAC 1444 tumors were “small effect”, “sensitive to EIPA” and “small effect”, respectively. The amino acid content result in the assay with KC6141 cells is “reduced”. In the assay with KC6141 cells (p62 KD or Nrf2 KD KC6141 cells on ECM), the “amino acid content in p62/NRF2 ablated cells” value is recorded as “ineffective”.

(Values after patent US12458630B2, “Combination therapy for cancer” (The Regents of the University of California, priority 2020, dated 2025).)
